According to patent US20260125378A2, “Heterocyclic Compounds” (BeOne Medicines I GmbH, priority 2023, published 2026):

Assays:
[1] = target: T1, Full length DGKα (D21-10BG, SignalChem) (Homo sapiens, UniProt P23743); assay: Biochemical DGK IC50 assay (ADP-Glo, lipid micelle substrate), DGKα; settings: 1 hour preincubation, 1 hour reaction, room temperature
T1 construct: Full length DGKα (D21-10BG, SignalChem); purchased SignalChem D21-10BG
Outline: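 ADP-Glo luminescence quantified ADP produced after a 1 h room-temperature reaction of full-length DGKα on DAG/PS micelles, in HEPES buffer containing MgCl2, CaCl2, vanadate, BSA and Tween-20. IC50 values derive from activity inhibition over a compound concentration series.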

[2] = target: T2, Full length DGKζ (in-house protein M1-V929) (Homo sapiens, UniProt Q13574); assay: Biochemical DGK IC50 assay (ADP-Glo, lipid micelle substrate), DGKζ; settings: 1 hour preincubation, 1 hour reaction, room temperature
T2 construct: His (N); TEV site (N); made in house; host or cells: Sf9 insect cells (Bac-to-Bac baculovirus)
Outline: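 Enzyme: full-length human DGKζ M1-V929, produced in baculovirus-infected Sf9 cells; substrate DAG/PS micelles. Buffer 50 mM HEPES, 10 mM MgCl2, 0.01 mM CaCl2, 0.1 mM Na3VO4.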

T2 sequence (Q13574 1-929 isoform Q13574-4): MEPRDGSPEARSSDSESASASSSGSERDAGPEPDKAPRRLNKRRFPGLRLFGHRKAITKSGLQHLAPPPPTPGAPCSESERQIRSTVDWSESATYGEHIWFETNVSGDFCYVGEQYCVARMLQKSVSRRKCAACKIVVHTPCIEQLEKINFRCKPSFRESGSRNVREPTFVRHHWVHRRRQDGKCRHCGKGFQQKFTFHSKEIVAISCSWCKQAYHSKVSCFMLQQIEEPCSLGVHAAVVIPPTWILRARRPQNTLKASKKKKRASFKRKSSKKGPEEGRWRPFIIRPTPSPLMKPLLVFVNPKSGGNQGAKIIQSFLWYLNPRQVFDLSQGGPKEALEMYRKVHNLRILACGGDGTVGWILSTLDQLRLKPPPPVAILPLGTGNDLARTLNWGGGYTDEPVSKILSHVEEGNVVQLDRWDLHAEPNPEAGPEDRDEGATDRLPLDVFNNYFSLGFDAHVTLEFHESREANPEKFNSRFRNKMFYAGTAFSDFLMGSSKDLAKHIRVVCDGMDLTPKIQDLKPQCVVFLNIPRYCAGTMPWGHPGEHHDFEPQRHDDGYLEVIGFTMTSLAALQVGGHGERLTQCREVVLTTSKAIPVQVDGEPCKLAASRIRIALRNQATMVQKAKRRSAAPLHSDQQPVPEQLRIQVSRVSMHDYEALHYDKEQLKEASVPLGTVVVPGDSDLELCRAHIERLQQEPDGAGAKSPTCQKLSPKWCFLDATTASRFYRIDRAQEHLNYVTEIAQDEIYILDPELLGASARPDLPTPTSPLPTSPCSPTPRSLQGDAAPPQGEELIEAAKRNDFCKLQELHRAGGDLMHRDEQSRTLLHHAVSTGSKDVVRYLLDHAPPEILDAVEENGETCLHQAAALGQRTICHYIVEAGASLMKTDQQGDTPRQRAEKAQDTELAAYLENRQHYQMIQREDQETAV
T1 sequence (P23743 whole entry): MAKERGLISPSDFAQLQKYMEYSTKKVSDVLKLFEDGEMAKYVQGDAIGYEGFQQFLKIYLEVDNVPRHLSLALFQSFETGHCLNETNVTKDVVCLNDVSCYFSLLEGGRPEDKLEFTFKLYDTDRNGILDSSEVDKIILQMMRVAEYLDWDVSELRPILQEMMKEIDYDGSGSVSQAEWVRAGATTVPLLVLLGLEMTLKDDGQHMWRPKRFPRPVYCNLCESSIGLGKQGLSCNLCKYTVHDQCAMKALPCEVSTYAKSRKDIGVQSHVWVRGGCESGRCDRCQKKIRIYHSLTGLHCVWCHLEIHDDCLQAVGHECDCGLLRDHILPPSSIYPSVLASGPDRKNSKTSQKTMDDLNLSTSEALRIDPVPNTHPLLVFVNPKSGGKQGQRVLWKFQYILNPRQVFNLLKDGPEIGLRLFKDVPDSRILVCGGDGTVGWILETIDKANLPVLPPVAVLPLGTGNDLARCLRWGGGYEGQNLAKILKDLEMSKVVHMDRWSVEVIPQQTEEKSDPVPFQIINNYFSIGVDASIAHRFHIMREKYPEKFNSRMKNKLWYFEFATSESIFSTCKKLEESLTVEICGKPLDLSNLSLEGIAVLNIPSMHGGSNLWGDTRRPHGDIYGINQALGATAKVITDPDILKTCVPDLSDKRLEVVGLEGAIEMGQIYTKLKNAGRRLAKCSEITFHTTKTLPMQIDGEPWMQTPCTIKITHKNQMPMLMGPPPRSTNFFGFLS

Row | IC50 [1] [nM] | IC50 [2] [nM] | Structure (SMILES)
1 | 49600 | 63 | CCn1c(CC#N)nc2c(N3C[C@@H](C)N(C(C)c4ccc5sc(C(C)C)nc5c4)C[C@@H]3C)nc(=O)n(C)c21 (stereo partly drawn) [Compound A96, 2-(9-ethyl-6-((2S,5R)-4-(1-(2-isopropylbenzo[d]thiazol-5-yl)ethyl)-2,5-dimethylpiperazin-1-yl)-3-methyl-2-oxo-3,9-dihydro-2H-purin-8-yl)acetonitrile]
2 | 11600 | 28 | CCn1c(CC#N)nc2c(N3C[C@@H](C)N(C(C)c4cc5c(cc4F)OCC(C)(C)O5)C[C@@H]3C)nc(=O)n(C)c21 (single isomer, unassigned) [Compound A157a]
3 | 51000 | 12 | CCn1c(CC#N)nc2c(N3C[C@@H](C)N(C(C)c4cc(F)c5c(c4)OC(C)(C)O5)C[C@@H]3C)nc(=O)n(C)c21 (single isomer, unassigned) [Compound A173a]
4 | 24700 | 11 | CCc1nc2cc(C(C)N3C[C@H](C)N(c4nc(=O)n(C)c5c4nc(CC#N)n5CC)C[C@H]3C)ccc2s1 (single isomer, unassigned) [Compound A95a]
5 | > 10000 | 25 | COC[C@H]1CN(C(C)c2ccc(F)cc2C(F)(F)F)[C@H](C)CN1c1nc(=O)n(C)c2c1nc(CC#N)n2C (stereo partly drawn) [Compound A10, 2-(6-((2R,5R)-4-(1-(4-fluoro-2-(trifluoromethyl)phenyl)ethyl)-2-(methoxymethyl)-5-methylpiperazin-1-yl)-3,9-dimethyl-2-oxo-3,9-dihydro-2H-purin-8-yl)acetonitrile]
6 | 2690 | 707 | CC#CCc1nc2c(N3C[C@@H](CC)N(C(C)c4ccc(C(F)(F)F)cc4)C[C@@H]3CC)nc(=O)n(C)c2n1C (stereo partly drawn) [Compound A152, 8-(but-2-yn-1-yl)-6-((2S,5R)-2,5-diethyl-4-(1-(4-(trifluoromethyl)phenyl)ethyl)piperazin-1-yl)-3,9-dimethyl-3,9-dihydro-2H-purin-2-one]
7 | > 150000 | 119 | CCn1c(CC#N)nc2c(N3C[C@@H](C)N(C(C)c4ccc5c(c4)C(=O)N(C)CO5)C[C@@H]3C)nc(=O)n(C)c21 (stereo partly drawn) [Compound A192, 2-(6-((2S,5R)-2,5-dimethyl-4-(1-(3-methyl-4-oxo-3,4-dihydro-2H-benzo[e][1,3]oxazin-6-yl)ethyl)piperazin-1-yl)-9-ethyl-3-methyl-2-oxo-3,9-dihydro-2H-purin-8-yl)acetonitrile]
8 | 83300 | 412 | CCn1c(CC#N)nc2c(N3C[C@@H](C)N(C(C)c4cc(F)c5c(c4)OC(C)(C)O5)C[C@@H]3C)nc(=O)n(C)c21 (single isomer, unassigned) [Compound A173b]
9 | > 150000 | 69 | CC(c1ccc2c(n1)OC(C)(C)CO2)N1C[C@H](C)N(c2nc(=O)n(C)c3c2nc(CC#N)n3CC(F)F)C[C@H]1C (stereo partly drawn) [Compound A165, 2-(9-(2,2-difluoroethyl)-6-((2S,5R)-4-(1-(3,3-dimethyl-2,3-dihydro-[1,4]dioxino[2,3-b]pyridin-6-yl)ethyl)-2,5-dimethylpiperazin-1-yl)-3-methyl-2-oxo-3,9-dihydro-2H-purin-8-yl)acetonitrile]
10 | 13600 | 332 | CC[C@@H]1CN(c2nc(=O)n(C)c3c2nc(CC#N)n3C)[C@@H](C)CN1C(C)c1ccc2ncc(C)nc2c1 (single isomer, unassigned) [Compound A50b]
11 | 51200 | 34 | CCn1c(CC#N)nc2c(N3C[C@@H](C)N(C(C)c4cccc(OC(F)(F)F)c4)C[C@@H]3C)nc(=O)n(C)c21 (stereo partly drawn) [Compound A44, 2-(6-((2S,5R)-2,5-dimethyl-4-(1-(3-(trifluoromethoxy)phenyl)ethyl)piperazin-1-yl)-9-ethyl-3-methyl-2-oxo-3,9-dihydro-2H-purin-8-yl)acetonitrile]
12 | > 150000 | 20 | CCn1c(CC#N)nc2c(N3C[C@@H](C)N(C(C)c4ccc5occ(C)c(=O)c5c4)C[C@@H]3C)nc(=O)n(C)c21 (stereo partly drawn) [Compound A91, 2-(6-((2S,5R)-2,5-dimethyl-4-(1-(3-methyl-4-oxo-4H-chromen-6-yl)ethyl)piperazin-1-yl)-9-ethyl-3-methyl-2-oxo-3,9-dihydro-2H-purin-8-yl)acetonitrile]
13 | > 150000 | 532 | CCn1c(CC#N)nc2c(N3C[C@@H](C)N(C(C)c4ccc5c(c4)OC(C)(C)CC5)C[C@@H]3C)nc(=O)n(C)c21 (single isomer, unassigned) [Compound A94b]
14 | 95100 | 32 | CCn1c(CC#N)nc2c(N3C[C@@H](C)N(C(C)c4cccc(C(C)C)c4)C[C@@H]3C)nc(=O)n(C)c21 (mixture of isomers) [Compound A108, 2-(9-ethyl-6-((2S,5R)-4-(1-(3-isopropylphenyl)ethyl)-2,5-dimethylpiperazin-1-yl)-3-methyl-2-oxo-3,9-dihydro-2H-purin-8-yl)acetonitrile]
15 | 27400 | 57 | COC[C@H]1CN(C(C)c2ccc3c(c2)OC(C)(C)CO3)[C@H](C)CN1c1nc(=O)n(C)c2c1nc(CC#N)n2C (single isomer, unassigned) [Compound A12b]
16 | 65800 | 107 | CCn1c(CC#N)nc2c(N3C[C@@H](C)N(C(C)c4cc(Cl)c5c(c4)OC(C)(C)O5)C[C@@H]3C)nc(=O)n(C)c21 (stereo partly drawn) [Compound A171, 2-(6-((2S,5R)-4-(1-(7-chloro-2,2-dimethylbenzo[d][1,3]dioxol-5-yl)ethyl)-2,5-dimethylpiperazin-1-yl)-9-ethyl-3-methyl-2-oxo-3,9-dihydro-2H-purin-8-yl)acetonitrile]
17 | 60500 | 33 | CC(c1nc2c(cc1F)OCC(C)(C)O2)N1C[C@H](C)N(c2nc(=O)n(C)c3c2nc(CC#N)n3C)C[C@H]1C (stereo partly drawn) [Compound A162, 2-(6-((2S,5R)-4-(1-(7-fluoro-3,3-dimethyl-2,3-dihydro-[1,4]dioxino[2,3-b]pyridin-6-yl)ethyl)-2,5-dimethylpiperazin-1-yl)-3,9-dimethyl-2-oxo-3,9-dihydro-2H-purin-8-yl)acetonitrile]
18 | 14200 | 2.3 | CC(c1ccc2c(c1)OC(C)(C)CO2)N1C[C@H](C)N(c2nc(=O)n(C)c3c2nc(CC#N)n3C)C[C@H]1C (single isomer, unassigned) [Compound A59b]
19 | 118000 | 285 | CCn1c(CC#N)nc2c(N3C[C@@H](C)N(C(C)c4cccc(C(F)(F)F)c4)C[C@@H]3C)nc(=O)n(C)c21 (single isomer, unassigned) [Compound A42b]
20 | 31500 | 11 | CC[C@@H]1CN(c2nc(=O)n(C)c3c2nc(CC#N)n3C)[C@@H](C)CN1C(C)c1ccc2c(n1)OC(C)(C)CO2 (mixture of isomers) [Compound A159, 2-(6-((2S,5R)-4-(1-(3,3-dimethyl-2,3-dihydro-[1,4]dioxino[2,3-b]pyridin-6-yl)ethyl)-5-ethyl-2-methylpiperazin-1-yl)-3,9-dimethyl-2-oxo-3,9-dihydro-2H-purin-8-yl)acetonitrile]
21 | > 150000 | 839 | CCn1c(CC#N)nc2c(N3C[C@@H](C)N(C(C)c4csc(C(F)(F)F)n4)C[C@@H]3C)nc(=O)n(C)c21 (stereo partly drawn) [Compound A104, 2-(6-((2S,5R)-2,5-dimethyl-4-(1-(2-(trifluoromethyl)thiazol-4-yl)ethyl)piperazin-1-yl)-9-ethyl-3-methyl-2-oxo-3,9-dihydro-2H-purin-8-yl)acetonitrile]
22 | > 150000 | 74 | CCn1c(CC#N)nc2c(N3C[C@@H](C)N(C(C)c4ccc5c(c4)OC(C)(C)O5)C[C@@H]3C)c(F)c(=O)n(C)c21 (stereo partly drawn) [Compound A188, 2-(7-((2S,5R)-4-(1-(2,2-dimethylbenzo[d][1,3]dioxol-5-yl)ethyl)-2,5-dimethylpiperazin-1-yl)-3-ethyl-6-fluoro-4-methyl-5-oxo-4,5-dihydro-3H-imidazo[4,5-b]pyridin-2-yl)acetonitrile]
23 | 27500 | 2.8 | CC(c1ccc2c(c1)OC(C)(C)CO2)N1C[C@H](C)N(c2c(F)c(=O)n(C)c3c2nc(CC#N)n3C)C[C@H]1C (single isomer, unassigned) [Compound A19a]
24 | > 150000 | 350 | CCn1c(CC#N)nc2c(N3C[C@@H](C)N(C(C)c4ccc(C)cc4C(F)(F)F)C[C@@H]3C)nc(=O)n(C)c21 (stereo partly drawn) [Compound A116, 2-(6-((2S,5R)-2,5-dimethyl-4-(1-(4-methyl-2-(trifluoromethyl)phenyl)ethyl)piperazin-1-yl)-9-ethyl-3-methyl-2-oxo-3,9-dihydro-2H-purin-8-yl)acetonitrile]
25 | > 150000 | 3 | CCn1c(CC#N)nc2c(N3C[C@@H](C)N(C(C)c4ccc5c(c4F)OC(C)(C)O5)C[C@@H]3C)c(F)c(=O)n(C)c21 (single isomer, unassigned) [Compound A190a]
26 | 108000 | 810 | CCn1c(CC#N)nc2c(N3C[C@@H](C)N(C(C)c4ccc5nc(C)sc5c4)C[C@@H]3C)nc(=O)n(C)c21 (single isomer, unassigned) [Compound A56a]
27 | > 150000 | 48 | CCn1c(CC#N)nc2c(N3C[C@@H](C)N(C(C)c4cc(F)c5c(n4)OC(C)(C)CO5)C[C@@H]3C)nc(=O)n(C)c21 (mixture of isomers) [Compound A163, 2-(9-ethyl-6-((2S,5R)-4-(1-(8-fluoro-3,3-dimethyl-2,3-dihydro-[1,4]dioxino[2,3-b]pyridin-6-yl)ethyl)-2,5-dimethylpiperazin-1-yl)-3-methyl-2-oxo-3,9-dihydro-2H-purin-8-yl)acetonitrile]
